We go through two compounds from ChEMBL document CHEMBL1134479 (J Med Chem, 2001).

Test [1] deals with T1, Estrogen receptor (Homo sapiens, UniProt P03372).
T1 sequence (P03372 whole entry): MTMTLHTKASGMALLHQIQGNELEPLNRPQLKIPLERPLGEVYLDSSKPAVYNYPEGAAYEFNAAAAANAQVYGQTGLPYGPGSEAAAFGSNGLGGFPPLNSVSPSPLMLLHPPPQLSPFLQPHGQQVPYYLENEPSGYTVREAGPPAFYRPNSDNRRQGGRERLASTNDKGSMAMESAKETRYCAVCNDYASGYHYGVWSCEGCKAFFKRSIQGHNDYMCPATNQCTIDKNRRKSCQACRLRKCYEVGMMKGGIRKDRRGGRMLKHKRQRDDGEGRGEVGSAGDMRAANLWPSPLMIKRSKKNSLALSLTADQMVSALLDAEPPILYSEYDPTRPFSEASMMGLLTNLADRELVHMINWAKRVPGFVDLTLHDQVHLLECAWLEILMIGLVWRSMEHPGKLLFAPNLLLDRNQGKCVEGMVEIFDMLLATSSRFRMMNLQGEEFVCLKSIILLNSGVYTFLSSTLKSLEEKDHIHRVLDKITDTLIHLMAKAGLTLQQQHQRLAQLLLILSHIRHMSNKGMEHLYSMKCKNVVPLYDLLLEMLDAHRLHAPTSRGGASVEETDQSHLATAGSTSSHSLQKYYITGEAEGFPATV
Kind of test: In vitro antagonist effect on estrogen receptor alpha transcriptional activation in MCF-7 cells against 10 pM 17-beta-estradiol.

Test [2] deals with T1, Estrogen receptor. Kind of test: In vitro inhibition of [3H]17-beta-estradiol binding to human estrogen receptor alpha.
In another test the target is Estrogen receptor beta (Homo sapiens, UniProt Q92731).
Estrogen receptor beta, sequence (Q92731 whole entry): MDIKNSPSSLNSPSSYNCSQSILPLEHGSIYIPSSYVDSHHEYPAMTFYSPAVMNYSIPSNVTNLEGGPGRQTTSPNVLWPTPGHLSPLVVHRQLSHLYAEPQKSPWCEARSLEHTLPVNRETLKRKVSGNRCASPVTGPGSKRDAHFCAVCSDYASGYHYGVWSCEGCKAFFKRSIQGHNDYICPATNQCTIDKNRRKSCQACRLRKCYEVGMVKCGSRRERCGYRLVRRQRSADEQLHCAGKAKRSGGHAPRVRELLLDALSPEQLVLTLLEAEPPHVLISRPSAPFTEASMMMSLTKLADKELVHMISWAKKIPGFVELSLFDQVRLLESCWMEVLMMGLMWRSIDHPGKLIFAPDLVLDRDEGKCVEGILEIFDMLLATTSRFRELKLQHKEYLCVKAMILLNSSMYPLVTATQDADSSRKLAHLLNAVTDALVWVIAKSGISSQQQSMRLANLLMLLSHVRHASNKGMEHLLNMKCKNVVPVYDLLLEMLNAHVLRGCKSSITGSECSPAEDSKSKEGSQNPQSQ

Description for Estrogen receptor beta: In vitro inhibitory concentration against [3H]17-beta-estradiol binding to human estrogen receptor 2

Take `Cc1c(-c2ccc(O)cc2)n(CCCCCCN2CCCC2)c2ccc(O)cc12`: the values for the IC50 at Estrogen receptor [1], on Estrogen receptor [2] and on Estrogen receptor beta were 69 nM, 25 nM and 242 nM, respectively.
Consider `Cc1c(-c2ccc(O)cc2)n(Cc2ccc(OCCN3CCCCC3)cc2)c2ccc(O)cc12` [PIPENDOXIFENE], for which, at Estrogen receptor beta, the IC50 (commonly the concentration at which inhibition is half-maximal) amounted to 40 nM.
